This is an account of results in patent publication US20260215419A1, “PLANT EXTRACTS WITH HERBICIDAL ACTIVITY” (Agrematch Ltd., priority 2023, published 2026).

Holding throughout (assay type): in vivo
One experiment deals with Amaranthus palmeri. As to the kind of experiment: Post-emergence herbicidal activity, visual damage score 0-100. The note with it: Table 4; 7-day old plants; 0.8 ml per 80 cm^2 pot; scored 13 days after application; average of five pots; synthetic Rhein 1 gram/liter (1000 g/ha) in 2% MIPA, 2% DASH, 0.25% Genapol. On the procedure: (§1) Damage assessment: Herbicidal activity was assessed and scored by visual inspection of the plants in comparison to plants treated with the formulation alone (with no plant extract) as control. Activity score is in the range of 0 to 100, where 0 represents no herbicidal activity like control plants and 100 represents the maximal herbicidal activity (i.e., total death of the plant).
(§2) The herbicidal activity of Rhein-containing extracts was determined by post-emergence application on 8-day old plants (weeds) of the Amaranthus palmeri and Setaria viridis species that were grown at 16 hours/8 hours day/night cycles at 30° C./25° C., respectively. Leaf stage was typically 4-6 for A. palmeri and 3-4 for S. viridis. […]
(§3) Herbicidal activity was assessed and scored 4 days after application by visual inspection of the plants in comparison to plants treated with the control solution alone (with no active ingredient). […]
(§4) Herbicidal activity of extract sample A-1b was determined by post-emergence application on 8-day old plants (weeds) of the A. palmeri and S. viridis species and 11-day old plants (weeds) of Abutilon theophrasti, Solanum nigrum, Echinochloa colonum, Phalaris canarinesis and Lolium multiflorum that were grown at 16 hours/8 hours day/night cycles at 30° C./25° C., respectively. […]
(§5) Herbicidal activity was assessed and scored 13 days after application, as described hereinabove. […]

For a further experiment, the system named is Setaria viridis. Described as above. The following applies: Table 4; 7-day old plants; 0.8 ml per 80 cm^2 pot; scored 13 days after application; average of five pots; synthetic Rhein 1 gram/liter (1000 g/ha). On the procedure: as §1, §2, §3, §4, §5
In another experiment the test system is Solanum nigrum. As to the kind of experiment: Post-emergence weed panel, visual damage score 0-100. The following applies: Table 4; 8-day old plants; 0.8 ml per 80 cm^2 pot; scored 13 days after application; average of five pots; synthetic Rhein 1 gram/liter (1000 g/ha). As to the method:
Damage assessment: Herbicidal activity was assessed and scored by visual inspection of the plants in comparison to plants treated with the formulation alone (with no plant extract) as control. Activity score is in the range of 0 to 100, where 0 represents no herbicidal activity like control plants and 100 represents the maximal herbicidal activity (i.e., total death of the plant). Herbicidal activity of extract sample A-1b was determined by post-emergence application on 8-day old plants (weeds) of the A. palmeri and S. viridis species and 11-day old plants (weeds) of Abutilon theophrasti, Solanum nigrum, Echinochloa colonum, Phalaris canarinesis and Lolium multiflorum that were grown at 16 hours/8 hours day/night cycles at 30° C./25° C., respectively. Leaf stage was typically 4-6 for A. palmeri, 3-4 for S. viridis, 3 for A. theophrasti and S. nigrum, 4 for E. colonum, and 2 for P. canarinesis and L. multiflorum. […] Herbicidal activity was assessed and scored 3 days after application, as described hereinabove. Herbicidal activity was determined by post-emergence application on 7-day old plants (weeds) of the A. palmeri and S. viridis species and 8-day old plants (weeds) of S. nigrum, and C. quinoa that were grown at 16 hours/8 hours day/night cycles at 30° C./25° C., respectively. […] Herbicidal activity was assessed and scored 13 days after application, as described hereinabove.

The test system of the next experiment is Chenopodium quinoa. Described as above. The following applies: Table 4; 8-day old plants; 0.8 ml per 80 cm^2 pot; scored 13 days after application; average of five pots; synthetic Rhein 1 gram/liter (1000 g/ha). As to the method: Damage assessment: Herbicidal activity was assessed and scored by visual inspection of the plants in comparison to plants treated with the formulation alone (with no plant extract) as control. Activity score is in the range of 0 to 100, where 0 represents no herbicidal activity like control plants and 100 represents the maximal herbicidal activity (i.e., total death of the plant). Herbicidal activity was determined by post-emergence application on 7-day old plants (weeds) of the A. palmeri and S. viridis species and 8-day old plants (weeds) of S. nigrum, and C. quinoa that were grown at 16 hours/8 hours day/night cycles at 30° C./25° C., respectively. Leaf stage was typically 4-6 for A. palmeri, 3-4 for S. viridis, and 4 for S. nigrum and C. quinoa. Each treatment contained five 80 cm^2 pots, each containing about 4 plants of one of the tested weed species. Each pot was sprayed with 0.8 ml of either: • 1. the exemplary extract sample A-1b, in which plant source A powder was mixed with solution 1b for 1.5 hours before filtration, or • 2. 1 gram/liter synthetic Rhein molecule dissolved in 2% MIPA, 2% DASH and 0.25% Genapol solution, which is equivalent to 1000 g/ha. Herbicidal activity was assessed and scored 13 days after application, as described hereinabove.

Regarding `O=C(O)c1cc(O)c2c(c1)C(=O)c1cccc(O)c1C2=O` [Synthetic Rhein, Rhein], the “Score (Amaranthus palmeri)” value in the experiment on Amaranthus palmeri came out at 100. For the same compound, in the experiment with Setaria viridis, the “Score (Setaria viridis)” value is 97. Besides, the “Score (Solanum nigrum)” value in the experiment with Solanum nigrum is reported as 100. For the same compound, the “Score (Chenopodium quinoa)” value with Chenopodium quinoa is recorded as 100.
